Test results taken from ChEMBL document CHEMBL4680140, “Minor chemical modifications of the aminosteroid derivative RM-581 lead to major impact on its anticancer activity, metabolic stability and aqueous solubility” (Eur J Med Chem, 2020).
In brackets after ≈: the same amount, converted by molar mass. Activity calls are given as the source filed them. The calls are words filed in the database; no cut-off is given here.

What was measured:
T47D [1] = assay: Antiproliferative activity against human T47D cells assessed as reduction in cell viability at 1 to 5 uM after 72 hrs by MTS assay; type: functional, cell-based; conditions: dose 1-5 µM
Hs 766 = assay: Antiproliferative activity against human Hs 766 cells assessed as reduction in cell viability at 1 to 5 uM after 72 hrs by MTS assay; type: functional, cell-based; conditions: dose 1-5 µM
LAPC4 [2] = assay: Antiproliferative activity against human LAPC4 cells assessed as reduction in cell viability at 1 to 5 uM after 72 hrs by MTS assay; type: functional, cell-based; conditions: dose 1-5 µM
OVCAR-3 [3] = assay: Antiproliferative activity against human OVCAR-3 cells assessed as reduction in cell viability at 1 to 5 uM after 72 hrs by MTS assay; type: functional, cell-based; conditions: dose 1-5 µM
SK-OV-3 = assay: Antiproliferative activity against human SK-OV-3 cells assessed as reduction in cell viability at 1 to 5 uM after 72 hrs by MTS assay; type: functional, cell-based; conditions: dose 1-5 µM
[4] = Stability in human liver s9 fraction assessed as parent compound remaining at 10 uM after 1 hr by LC-MS analysis; type: ADME, subcellular; conditions: read-out: Stabilty
PANC-1 [5] = assay: Antiproliferative activity against human PANC-1 cells assessed as reduction in cell viability at 1 to 5 uM after 72 hrs by MTS assay; type: functional, cell-based; conditions: dose 1-5 µM
Caov-3 cell line = assay: Antiproliferative activity against human Caov-3 cells assessed as reduction in cell viability at 1 to 5 uM after 72 hrs by MTS assay; type: functional, cell-based; conditions: dose 1-5 µM
BXPC-3 = assay: Antiproliferative activity against human BXPC-3 cells assessed as reduction in cell viability at 1 to 5 uM after 72 hrs by MTS assay; type: functional, cell-based; conditions: dose 1-5 µM
MCF7 [6] = assay: Antiproliferative activity against human MCF7 cells assessed as reduction in cell viability at 1 to 5 uM after 72 hrs by MTS assay; type: functional, cell-based; conditions: dose 1-5 µM
PANC-1 [7] = assay: Antiproliferative activity against human PANC-1 cells assessed as reduction in cell viability after 72 hrs by MTS assay; type: functional, cell-based; conditions: PANC-1, 72 h
LAPC4 [8] = assay: Antiproliferative activity against human LAPC4 cells assessed as reduction in cell viability after 72 hrs by MTS assay; type: functional, cell-based; conditions: LAPC4, 72 h
MCF7 [9] = assay: Antiproliferative activity against human MCF7 cells assessed as reduction in cell viability after 72 hrs by MTS assay; type: functional, cell-based; conditions: MCF7, 72 h
T47D [10] = assay: Antiproliferative activity against human T47D cells assessed as reduction in cell viability after 72 hrs by MTS assay; type: functional, cell-based
LNCaP = assay: Antiproliferative activity against human LNCaP cells assessed as reduction in cell viability after 72 hrs by MTS assay; type: functional, cell-based
OVCAR-3 [11] = assay: Antiproliferative activity against human OVCAR-3 cells assessed as reduction in cell viability after 72 hrs by MTS assay; type: functional, cell-based; conditions: OVCAR-3, 72 h
PC-3 = assay: Antiproliferative activity against human PC-3 cells assessed as reduction in cell viability after 72 hrs by MTS assay; type: functional, cell-based; conditions: PC-3, 72 h
[12] = Solubility of compound in PBS at pH 7.4 at 300 uM after 24 hrs by HPLC-UV analysis; type: physicochemical
[13] = Solubility of compound in PBS at pH 7.4 at pH 7.4 HPLC analysis; type: physicochemical

SMILES | Activity (T47D [1]) | Activity (Hs 766) | Activity (LAPC4 [2]) | Activity (OVCAR-3 [3]) | Activity (SK-OV-3) | remaining at 1 h, 10 µM [4] | Activity (PANC-1 [5]) | Activity (Caov-3 cell line) | Activity (BXPC-3) | Activity (MCF7 [6]) | IC50 (PANC-1 [7]) | IC50 (LAPC4 [8]) | IC50 (MCF7 [9]) | IC50 (T47D [10]) | IC50 (LNCaP) | IC50 (OVCAR-3 [11]) | IC50 (PC-3) | solubility at 24 h, 300 µM [12] | solubility [13]
O=c1[nH]cc(F)c(=O)[nH]1 | Active |  |  |  |  |  |  |  |  |  |  |  |  |  |  |  |  |  | 
C#CC1(O)CC[C@H]2[C@@H]3CCc4cc(OC(=O)N(C)C)c(N5CCN(C(=O)[C@@H]6CCCN6C(=O)c6ccc7ccccc7n6)CC5)cc4[C@H]3CC[C@@]21C (single isomer, unassigned) | inactive | inactive | inactive | inactive | inactive | 52% | inactive | inactive | inactive | inactive |  |  |  |  |  |  |  |  | 
C#CC1(O)CC[C@H]2[C@@H]3CCc4cc(OC(C)=O)c(N5CCN(C(=O)[C@@H]6CCCN6C(=O)c6ccc7ccccc7n6)CC5)cc4[C@H]3CC[C@@]21C (single isomer, unassigned) | Active | Active | Active | Active | Active | 76% | Active | Active | Active | Active | 2.8 µM | 0.5 µM | 1.4 µM | 0.4 µM | 0.8 µM | 3.9 µM | 1.4 µM |  | 
C#CC1(O)CC[C@H]2[C@@H]3CCc4cc(OC(=O)N(CC)CC)c(N5CCN(C(=O)[C@@H]6CCCN6C(=O)c6ccc7ccccc7n6)CC5)cc4[C@H]3CC[C@@]21C (single isomer, unassigned) | inactive | inactive | inactive | inactive | inactive | 52% | inactive | inactive | inactive | inactive |  |  |  |  |  |  |  |  | 
C#CC1(O)CC[C@H]2[C@@H]3CCc4ccc(N5CCN(C(=O)[C@@H]6CCCN6C(=O)c6ccc7ccccc7n6)CC5)cc4[C@H]3CC[C@@]21C (single isomer, unassigned) | inactive | inactive | inactive | inactive | inactive | 35% | inactive | inactive | inactive | inactive |  |  |  |  |  |  |  |  | 
C#CC1(O)CC[C@H]2[C@@H]3CCc4cc(C(C)O)c(N5CCN(C(=O)[C@@H]6CCCN6C(=O)c6ccc7ccccc7n6)CC5)cc4[C@H]3CC[C@@]21C (single isomer, unassigned) | inactive | inactive | inactive | inactive | inactive | 35% | inactive | inactive | inactive | inactive |  |  |  |  |  |  |  |  | 
C#CC1(O)CC[C@H]2[C@@H]3CCc4cc(OS(N)(=O)=O)c(N5CCN(C(=O)[C@@H]6CCCN6C(=O)c6ccc7ccccc7n6)CC5)cc4[C@H]3CC[C@@]21C (single isomer, unassigned) | Active | Active | Active | Active | Active | 35% | Active | Active | Active | Active | 3 µM | 0.3 µM | 1.2 µM | 0.2 µM | 0.9 µM | 3.1 µM | 1.6 µM |  | 
C#CC1(O)CC[C@H]2[C@@H]3CCc4cc(O)c(N5CCN(C(=O)[C@@H]6CCCN6C(=O)c6ccc7ccccc7n6)CC5)cc4[C@H]3CC[C@@]21C (single isomer, unassigned) | Active | Active | Active | Active | Active | 35% | Active | Active | Active | Active | 3.1 µM | 0.4 µM | 1.4 µM | 0.5 µM | 1.1 µM | 4.4 µM | 1.4 µM |  | 
C#CC1(O)CC[C@H]2[C@@H]3CCc4cc(OP(=O)(O)O)c(N5CCN(C(=O)[C@@H]6CCCN6C(=O)c6ccc7ccccc7n6)CC5)cc4[C@H]3CC[C@@]21C (single isomer, unassigned) | Active | Active | Active | Active | Active | 52% | Active | Active | Active | Active | 2.6 µM | 0.3 µM | 1.5 µM | 0.3 µM | 0.6 µM | 4.6 µM | 1.3 µM | > 720 µg/mL | 
CCCSc1ccc2nc(NC(=O)OC)[nH]c2c1 [ALBENDAZOLE] |  |  |  |  |  |  |  |  |  |  |  |  |  |  |  |  |  | 0.52 µg/mL (≈ 1.96 µM) | 0.74 µg/mL (≈ 2.79 µM)
